From patent US20240023549A1 (published 2024)

melting point [°C] | SMILES
147 to 149 | CCN(C)/C=N/c1cc(C)c(C(=O)Nc2ccccc2)cc1C
89 to 92 | CCN(C)/C=N/c1cc(C)c(C(=O)n2ccc3cc(C(F)(F)F)ccc32)cc1C
